# According to the supplement of paper PMC10307832:
# What was measured:
# Experiment in all cases: relative viability (nuclei count vs DMSO), 5 days (fraction); higher = more cells survive
# HCC-44 = test system: HCC-44
# In short: (§1)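 Medians of duplicate plates are given as relative viability. That measure is the nuclei count in treated wells divided by the count in vehicle wells. Counts were taken on 4× images of lung cancer cell lines in 1536-well plates, 5 days after pin-tool dosing the day after seeding with one drug alone or a fixed anchor-drug dose plus five library-drug doses (not always all listed) in √10 steps.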
# NCI-H2405 = test system: NCI-H2405
# In short: as §1
# NCI-H460 = test system: NCI-H460
# In short: as §1
# A-427 = test system: A-427
# In short: as §1
# NCI-H1755 = test system: NCI-H1755
# In short: as §1
# ChaGo-K-1 = test system: ChaGo-K-1
# In short: as §1
# EPLC-272H = test system: EPLC-272H
# In short: as §1
# NCI-H522 = test system: NCI-H522
# In short: as §1
# NCI-H647 = test system: NCI-H647
# In short: as §1
# NCI-H358 = test system: NCI-H358
# In short: as §1
# RERF-LC-KJ = test system: RERF-LC-KJ
# In short: as §1
# COR-L 105 = test system: COR-L 105
# In short: as §1
# LK-2 = test system: LK-2
# In short: as §1
# EMC-BAC-2 = test system: EMC-BAC-2
# In short: as §1
# NCI-H1792 = test system: NCI-H1792
# In short: as §1
# LU99A = test system: LU99A
# In short: as §1
# NCI-H1650 = test system: NCI-H1650
# In short: as §1
# HARA = test system: HARA
# In short: as §1
# NCI-H1734 = test system: NCI-H1734
# In short: as §1
# NCI-H1993 = test system: NCI-H1993
# In short: as §1
# NCI-H596 = test system: NCI-H596
# In short: as §1
# EKVX = test system: EKVX
# In short: as §1
# SW 900 = test system: SW 900
# In short: as §1
smiles,measurement,setting,value
Cc1csc(=NC2CCCCC2)n1/N=C/c1ccc(O)c(O)c1O [MIM1] + Nc1ncn([C@H]2C[C@H](O)[C@@H](CO)O2)c(=O)n1 [Decitabine] (partner 2 µM),relative viability,HCC-44; first compound 0.2 µM,0.905
same,relative viability,HCC-44; first compound 0.6325 µM,0.85
same,relative viability,HCC-44; first compound 2 µM,0.866
same,relative viability,HCC-44; first compound 6.325 µM,0.479
same,relative viability,HCC-44; first compound 20 µM,0.405
same,relative viability,NCI-H2405; first compound 0.2 µM,0.744
same,relative viability,NCI-H2405; first compound 0.6325 µM,0.738
same,relative viability,NCI-H2405; first compound 2 µM,0.771
same,relative viability,NCI-H2405; first compound 6.325 µM,0.561
same,relative viability,NCI-H2405; first compound 20 µM,0.421
same,relative viability,NCI-H460; first compound 0.2 µM,0.438
same,relative viability,NCI-H460; first compound 0.6325 µM,0.479
same,relative viability,NCI-H460; first compound 2 µM,0.43
same,relative viability,NCI-H460; first compound 6.325 µM,0.182
same,relative viability,NCI-H460; first compound 20 µM,0.0456
same,relative viability,A-427; first compound 0.2 µM,0.583
same,relative viability,A-427; first compound 0.6325 µM,0.578
same,relative viability,A-427; first compound 2 µM,0.572
same,relative viability,A-427; first compound 6.325 µM,0.541
same,relative viability,A-427; first compound 20 µM,0.308
same,relative viability,NCI-H1755; first compound 0.2 µM,0.724
same,relative viability,NCI-H1755; first compound 0.6325 µM,0.694
same,relative viability,NCI-H1755; first compound 2 µM,0.727
same,relative viability,NCI-H1755; first compound 6.325 µM,0.657
same,relative viability,NCI-H1755; first compound 20 µM,0.549
same,relative viability,ChaGo-K-1; first compound 0.2 µM,0.542
same,relative viability,ChaGo-K-1; first compound 0.6325 µM,0.527
same,relative viability,ChaGo-K-1; first compound 2 µM,0.544
same,relative viability,ChaGo-K-1; first compound 6.325 µM,0.459
same,relative viability,ChaGo-K-1; first compound 20 µM,0.18
same,relative viability,EPLC-272H; first compound 0.2 µM,0.36
same,relative viability,EPLC-272H; first compound 0.6325 µM,0.382
same,relative viability,EPLC-272H; first compound 2 µM,0.375
same,relative viability,EPLC-272H; first compound 6.325 µM,0.29
same,relative viability,EPLC-272H; first compound 20 µM,0.154
same,relative viability,NCI-H522; first compound 0.2 µM,0.625
same,relative viability,NCI-H522; first compound 0.6325 µM,0.632
same,relative viability,NCI-H522; first compound 2 µM,0.711
same,relative viability,NCI-H522; first compound 6.325 µM,0.691
same,relative viability,NCI-H522; first compound 20 µM,0.63
same,relative viability,NCI-H647; first compound 0.2 µM,0.414
same,relative viability,NCI-H647; first compound 0.6325 µM,0.364
same,relative viability,NCI-H647; first compound 2 µM,0.397
same,relative viability,NCI-H647; first compound 6.325 µM,0.33
same,relative viability,NCI-H647; first compound 20 µM,0.126
same,relative viability,NCI-H358; first compound 0.2 µM,0.212
same,relative viability,NCI-H358; first compound 0.6325 µM,0.224
same,relative viability,NCI-H358; first compound 2 µM,0.216
same,relative viability,NCI-H358; first compound 6.325 µM,0.148
same,relative viability,NCI-H358; first compound 20 µM,0.119
same,relative viability,RERF-LC-KJ; first compound 0.2 µM,0.624
same,relative viability,RERF-LC-KJ; first compound 0.6325 µM,0.652
same,relative viability,RERF-LC-KJ; first compound 2 µM,0.377
same,relative viability,RERF-LC-KJ; first compound 6.325 µM,0.301
same,relative viability,RERF-LC-KJ; first compound 20 µM,0.22
same,relative viability,COR-L 105; first compound 0.2 µM,0.592
same,relative viability,COR-L 105; first compound 0.6325 µM,0.661
same,relative viability,COR-L 105; first compound 2 µM,0.72
same,relative viability,COR-L 105; first compound 6.325 µM,0.571
same,relative viability,COR-L 105; first compound 20 µM,0.571
same,relative viability,LK-2; first compound 0.2 µM,0.343
same,relative viability,LK-2; first compound 0.6325 µM,0.288
same,relative viability,LK-2; first compound 2 µM,0.246
same,relative viability,LK-2; first compound 6.325 µM,0.346
same,relative viability,LK-2; first compound 20 µM,0.163
same,relative viability,EMC-BAC-2; first compound 0.2 µM,0.97
same,relative viability,EMC-BAC-2; first compound 0.6325 µM,0.897
same,relative viability,EMC-BAC-2; first compound 2 µM,0.8
same,relative viability,EMC-BAC-2; first compound 6.325 µM,0.852
same,relative viability,EMC-BAC-2; first compound 20 µM,0.368
same,relative viability,NCI-H1792; first compound 0.2 µM,0.574
same,relative viability,NCI-H1792; first compound 0.6325 µM,0.497
same,relative viability,NCI-H1792; first compound 2 µM,0.611
same,relative viability,NCI-H1792; first compound 6.325 µM,0.439
same,relative viability,NCI-H1792; first compound 20 µM,0.411
same,relative viability,LU99A; first compound 0.2 µM,0.87
same,relative viability,LU99A; first compound 0.6325 µM,0.845
same,relative viability,LU99A; first compound 2 µM,0.927
same,relative viability,LU99A; first compound 6.325 µM,0.889
same,relative viability,LU99A; first compound 20 µM,0.393
same,relative viability,NCI-H1650; first compound 0.2 µM,0.428
same,relative viability,NCI-H1650; first compound 0.6325 µM,0.448
same,relative viability,NCI-H1650; first compound 2 µM,0.348
same,relative viability,NCI-H1650; first compound 6.325 µM,0.199
same,relative viability,NCI-H1650; first compound 20 µM,0.135
same,relative viability,HARA; first compound 0.2 µM,0.529
same,relative viability,HARA; first compound 0.6325 µM,0.722
same,relative viability,HARA; first compound 2 µM,0.697
same,relative viability,HARA; first compound 6.325 µM,0.475
same,relative viability,HARA; first compound 20 µM,0.204
same,relative viability,NCI-H1734; first compound 0.2 µM,0.458
same,relative viability,NCI-H1734; first compound 0.6325 µM,0.492
same,relative viability,NCI-H1734; first compound 2 µM,0.452
same,relative viability,NCI-H1734; first compound 6.325 µM,0.323
same,relative viability,NCI-H1734; first compound 20 µM,0.178
same,relative viability,NCI-H1993; first compound 0.2 µM,0.534
same,relative viability,NCI-H1993; first compound 0.6325 µM,0.531
same,relative viability,NCI-H1993; first compound 2 µM,0.517
same,relative viability,NCI-H1993; first compound 6.325 µM,0.483
same,relative viability,NCI-H1993; first compound 20 µM,0.3
same,relative viability,NCI-H596; first compound 0.2 µM,1.09
same,relative viability,NCI-H596; first compound 0.6325 µM,1.1
same,relative viability,NCI-H596; first compound 2 µM,0.831
same,relative viability,NCI-H596; first compound 6.325 µM,0.84
same,relative viability,NCI-H596; first compound 20 µM,0.841
same,relative viability,EKVX; first compound 0.2 µM,0.405
same,relative viability,EKVX; first compound 0.6325 µM,0.342
same,relative viability,EKVX; first compound 2 µM,0.331
same,relative viability,EKVX; first compound 6.325 µM,0.321
same,relative viability,EKVX; first compound 20 µM,0.341
same,relative viability,SW 900; first compound 0.2 µM,0.345
same,relative viability,SW 900; first compound 0.6325 µM,0.482
same,relative viability,SW 900; first compound 2 µM,0.486
same,relative viability,SW 900; first compound 6.325 µM,0.31
same,relative viability,SW 900; first compound 20 µM,0.206
